Data taken from patent publication EP4722201A1, “3-PHENYLISOXAZOLINE-5-CARBOXAMIDE COMPOUND, AND PREPARATION METHOD THEREFOR, HERBICIDAL COMPOSITION THEREOF AND USE THEREOF” (Jiangsu Flag Chemical Industry Co., Ltd, priority 2023, dated 2024).

Experiments:
Format in all cases: in vivo
Cyperus iria [1] = assay: Indoor herbicide activity determination, post-emergence (stem and leaf spray at 2-4 leaf stage); conditions: 504 h, 30 g a.i./ha, determined 21 days later, read-out: Inhibition rate of fresh weight, Cyperus iria
Text: (§1) The testing method for herbicide activity of the compound of the present invention was as follows:
(§2) Post-emergence: an appropriate quantity of seeds of gramineous weeds (Echinochloa crusgalli, Eleusine indica, Digitaria sanguinalis, Alopecurus japonicus, Beckmannia syzigachne, Leptochloa chinensis, Polypogon fugax, Alopecurus aequalis, Lolium multiflorum, Poa annua, Aegilops tauschii, Avena fatua, Alopecurus myosuroides, Alopecurus japonicus and Alopecurus aequalis), broad-leaved weeds (Eclipta prostrata, Amaranthus retroflexus, Rorippa indica, Malachium aquaticum, Veronica polita, Conyza canadensis, Sesbania cannabina, Sagittariatrifolia and Schoenoplectiella juncoides), and Cyperus iria were sown in plastic pots having a diameter of 7 cm and holes at the bottom and filled with nutrient soil (sandy soil, pH 6.1, organic matter 1%) respectively, the seeds were covered with an appropriate amount of soil after being sown, then the soil was wetted with water from the bottom, the seeds were cultured in a constant-temperature illuminated culture room until a 2-4 leaf stage, and stems and leaves underwent spray treatment. After the treatment, the test materials were placed in a laboratory and cultured in the constant-temperature illuminated culture room after the liquid was naturally dry in the shade, and results were determined 21 days later. Inhibition rate of fresh weight % = (1−(fresh weight of treated plants)/(fresh weight of control plants)) × 100% [formula]

Digitaria sanguinalis [2] = assay: as above; conditions: 504 h, 30 g a.i./ha, determined 21 days later, read-out: Inhibition rate of fresh weight, Digitaria sanguinalis
Text: as §1, §2

Eclipta prostrata [3] = assay: as above; conditions: 504 h, 30 g a.i./ha, determined 21 days later, read-out: Inhibition rate of fresh weight, Eclipta prostrata
Text: as §1, §2

Aegilops tauschii = assay: Indoor herbicide activity determination, Seed Treatment; pre-emergence (soil spray); conditions: read-out: Herbicidal activities (inhibition rate) Aegilops tauschii; for inhibition at 60 g/ha: 60 g a.i./ha; for inhibition at 120 g/ha: 120 g a.i./ha
Summary of the method: (§3)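 Pre-emergence soil spray; sandy soil pH 6.1, OM 1%, 7 cm pots; seeds covered, wetted from below, 24 h incubation under light at constant temperature; spray tower, 300 mm height, 390 mL/min nozzle flow; readout = % fresh-weight inhibition vs control at 21 d.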

Alopecurus japonicus = assay: as above
Summary of the method: as §3

Cyperus iria [4] = assay: as above; conditions: read-out: Herbicidal activities (inhibition rate) Cyperus iria; for inhibition at 60 g/ha: 60 g a.i./ha; for inhibition at 120 g/ha: 120 g a.i./ha
Summary of the method: as §3

Digitaria sanguinalis [5] = assay: as above; conditions: read-out: Herbicidal activities (inhibition rate) Digitaria sanguinalis; for inhibition at 60 g/ha: 60 g a.i./ha; for inhibition at 120 g/ha: 120 g a.i./ha
Summary of the method: as §3

Eclipta prostrata [6] = assay: as above; conditions: read-out: Herbicidal activities (inhibition rate) Eclipta prostrata; for inhibition at 60 g/ha: 60 g a.i./ha; for inhibition at 120 g/ha: 120 g a.i./ha
Summary of the method: as §3

Eleusine indica = assay: as above
Summary of the method: as §3

Leptochloa chinensis = assay: as above
Summary of the method: as §3

Alopecurus myosuroides = assay: as above
Summary of the method: as §3

Lolium multiflorum = assay: as above
Summary of the method: as §3

| SMILES | inhibition at 120 g/ha (Aegilops tauschii) [%] | Herbicidal activity (inhibition rate class), Alopecurus japonicus (Alopecurus japonicus; Dosage 240 g a.i./ha) | Herbicidal activity (inhibition rate class), Alopecurus myosuroides (Alopecurus myosuroides; Dosage 240 g a.i./ha) | inhibition at 120 g/ha (Cyperus iria [4]) [%] | inhibition at 120 g/ha (Digitaria sanguinalis [5]) [%] | inhibition at 120 g/ha (Eclipta prostrata [6]) [%] | Herbicidal activity (inhibition rate class), Eleusine indica (Eleusine indica; Dosage 240 g a.i./ha) | Herbicidal activity (inhibition rate class), Leptochloa chinensis (Leptochloa chinensis; Dosage 240 g a.i./ha) | Herbicidal activity (inhibition rate class), Lolium multiflorum (Lolium multiflorum; Dosage 240 g a.i./ha) | further results |
| --- | --- | --- | --- | --- | --- | --- | --- | --- | --- | --- |
| C=C[C@]1(C(=O)N[C@H]2C=C[C@@H](C(=O)O)C2)CC(c2cc(F)cc(F)c2)=NO1 [CK1, reference compound] | – | – | – | – | – | – | – | – | – | inhibition at 30 g/ha (Cyperus iria [1]): 60 to 80%; inhibition at 30 g/ha (Digitaria sanguinalis [2]): 60 to 80%; inhibition at 30 g/ha (Eclipta prostrata [3]): < 20% |
| C=C[C@]1(C(=O)N[C@H]2C=C[C@@H](C(=O)OC)C2)CC(c2cc(F)cc(F)c2)=NO1 [CK2, reference compound] | – | – | – | – | – | – | – | – | – | inhibition at 30 g/ha (Cyperus iria [1]): 60 to 80%; inhibition at 30 g/ha (Digitaria sanguinalis [2]): 60 to 80%; inhibition at 30 g/ha (Eclipta prostrata [3]): 20 to 40% |
| C=C[C@]1(C(=O)N[C@H]2C=C[C@@H](C(=O)OC)C2)CC(c2cc(Cl)cc(C(F)(F)F)c2)=NO1 [I-477] | – | – | – | – | – | – | – | – | – | inhibition at 30 g/ha (Cyperus iria [1]): 80 to 100%; inhibition at 30 g/ha (Digitaria sanguinalis [2]): 60 to 80%; inhibition at 60 g/ha (Aegilops tauschii): 80 to 100%; Herbicidal activity (inhibition rate class), Alopecurus japonicus (Alopecurus japonicus; Dosage 120 g a.i./ha): B (B indicates that the inhibition rate was greater than or equal to 60% to less than 80%); inhibition at 60 g/ha (Cyperus iria [4]): 60 to 80%; inhibition at 60 g/ha (Digitaria sanguinalis [5]): 60 to 80%; inhibition at 60 g/ha (Eclipta prostrata [6]): 40 to 60%; Herbicidal activity (inhibition rate class), Eleusine indica (Eleusine indica; Dosage 120 g a.i./ha): A (A indicates that the inhibition rate was greater than or equal to 80% to 100%); Herbicidal activity (inhibition rate class), Leptochloa chinensis (Leptochloa chinensis; Dosage 120 g a.i./ha): A (A indicates that the inhibition rate was greater than or equal to 80% to 100%) |
| CC1(C(=O)N[C@H]2C=C[C@@H](C(=O)O)C2)CC(c2cc(F)cc(OC(F)(F)F)c2)=NO1 (stereo partly drawn) [I-488] | 80 to 100 | A (A indicates that the inhibition rate was greater than or equal to 80% to 100%) | A (A indicates that the inhibition rate was greater than or equal to 80% to 100%) | 80 to 100 | 60 to 80 | 80 to 100 | A (A indicates that the inhibition rate was greater than or equal to 80% to 100%) | A (A indicates that the inhibition rate was greater than or equal to 80% to 100%) | A (A indicates that the inhibition rate was greater than or equal to 80% to 100%) | – |
| CSCCOC(=O)[C@@H]1C=C[C@H](NC(=O)C2(C)CC(c3cc(F)cc(OC(F)(F)F)c3)=NO2)C1 (stereo partly drawn) [I-490] | 80 to 100 | A (A indicates that the inhibition rate was greater than or equal to 80% to 100%) | A (A indicates that the inhibition rate was greater than or equal to 80% to 100%) | 80 to 100 | 80 to 100 | 80 to 100 | A (A indicates that the inhibition rate was greater than or equal to 80% to 100%) | A (A indicates that the inhibition rate was greater than or equal to 80% to 100%) | A (A indicates that the inhibition rate was greater than or equal to 80% to 100%) | – |
| CC1(C(=O)N[C@H]2C=C[C@@H](C(=O)OCCS(C)(=O)=O)C2)CC(c2cc(F)cc(OC(F)(F)F)c2)=NO1 (stereo partly drawn) [I-492] | 80 to 100 | A (A indicates that the inhibition rate was greater than or equal to 80% to 100%) | A (A indicates that the inhibition rate was greater than or equal to 80% to 100%) | 60 to 80 | 80 to 100 | 80 to 100 | A (A indicates that the inhibition rate was greater than or equal to 80% to 100%) | A (A indicates that the inhibition rate was greater than or equal to 80% to 100%) | A (A indicates that the inhibition rate was greater than or equal to 80% to 100%) | – |
| CC1(C(=O)N[C@H]2C=C[C@@H](C(=O)O)C2)CC(c2cc(F)cc(C(F)(F)F)c2)=NO1 (stereo partly drawn) [I-493] | 80 to 100 | A (A indicates that the inhibition rate was greater than or equal to 80% to 100%) | A (A indicates that the inhibition rate was greater than or equal to 80% to 100%) | 80 to 100 | 60 to 80 | 60 to 80 | A (A indicates that the inhibition rate was greater than or equal to 80% to 100%) | A (A indicates that the inhibition rate was greater than or equal to 80% to 100%) | A (A indicates that the inhibition rate was greater than or equal to 80% to 100%) | – |
| COC(=O)[C@@H]1C=C[C@H](NC(=O)C2(C)CC(c3cc(F)cc(OC(F)F)c3)=NO2)C1 (stereo partly drawn) [I-505] | 80 to 100 | A (A indicates that the inhibition rate was greater than or equal to 80% to 100%) | A (A indicates that the inhibition rate was greater than or equal to 80% to 100%) | 80 to 100 | 80 to 100 | 80 to 100 | B (B indicates that the inhibition rate was greater than or equal to 60% to less than 80%) | A (A indicates that the inhibition rate was greater than or equal to 80% to 100%) | A (A indicates that the inhibition rate was greater than or equal to 80% to 100%) | – |
| COC(=O)[C@@H]1C=C[C@H](NC(=O)C2(C)CC(c3cc(Cl)cc(C(F)(F)F)c3)=NO2)C1 (stereo partly drawn) [I-511] | 80 to 100 | A (A indicates that the inhibition rate was greater than or equal to 80% to 100%) | A (A indicates that the inhibition rate was greater than or equal to 80% to 100%) | 80 to 100 | 80 to 100 | 80 to 100 | A (A indicates that the inhibition rate was greater than or equal to 80% to 100%) | A (A indicates that the inhibition rate was greater than or equal to 80% to 100%) | A (A indicates that the inhibition rate was greater than or equal to 80% to 100%) | – |
| O=C(O)[C@@H]1C=C[C@H](NC(=O)[C@@]2(C(F)(F)F)CC(c3cc(F)cc(C(F)(F)F)c3)=NO2)C1 [I-516] | – | – | – | – | – | – | – | – | – | inhibition at 60 g/ha (Aegilops tauschii): 80 to 100%; Herbicidal activity (inhibition rate class), Alopecurus japonicus (Alopecurus japonicus; Dosage 120 g a.i./ha): A (A indicates that the inhibition rate was greater than or equal to 80% to 100%); Herbicidal activity (inhibition rate class), Alopecurus myosuroides (Alopecurus myosuroides; Dosage 120 g a.i./ha): A (A indicates that the inhibition rate was greater than or equal to 80% to 100%); inhibition at 60 g/ha (Cyperus iria [4]): 80 to 100%; inhibition at 60 g/ha (Digitaria sanguinalis [5]): 80 to 100%; inhibition at 60 g/ha (Eclipta prostrata [6]): 60 to 80%; Herbicidal activity (inhibition rate class), Eleusine indica (Eleusine indica; Dosage 120 g a.i./ha): A (A indicates that the inhibition rate was greater than or equal to 80% to 100%); Herbicidal activity (inhibition rate class), Leptochloa chinensis (Leptochloa chinensis; Dosage 120 g a.i./ha): A (A indicates that the inhibition rate was greater than or equal to 80% to 100%); Herbicidal activity (inhibition rate class), Lolium multiflorum (Lolium multiflorum; Dosage 120 g a.i./ha): A (A indicates that the inhibition rate was greater than or equal to 80% to 100%) |
| C#C[C@@H](C)OC(=O)[C@@H]1C=C[C@H](NC(=O)[C@@]2(C(F)(F)F)CC(c3cc(F)cc(C(F)(F)F)c3)=NO2)C1 [I-521] | – | – | – | – | – | – | – | – | – | inhibition at 60 g/ha (Aegilops tauschii): 80 to 100%; Herbicidal activity (inhibition rate class), Alopecurus japonicus (Alopecurus japonicus; Dosage 120 g a.i./ha): A (A indicates that the inhibition rate was greater than or equal to 80% to 100%); Herbicidal activity (inhibition rate class), Alopecurus myosuroides (Alopecurus myosuroides; Dosage 120 g a.i./ha): A (A indicates that the inhibition rate was greater than or equal to 80% to 100%); inhibition at 60 g/ha (Cyperus iria [4]): 80 to 100%; inhibition at 60 g/ha (Digitaria sanguinalis [5]): 80 to 100%; inhibition at 60 g/ha (Eclipta prostrata [6]): 80 to 100%; Herbicidal activity (inhibition rate class), Eleusine indica (Eleusine indica; Dosage 120 g a.i./ha): A (A indicates that the inhibition rate was greater than or equal to 80% to 100%); Herbicidal activity (inhibition rate class), Leptochloa chinensis (Leptochloa chinensis; Dosage 120 g a.i./ha): A (A indicates that the inhibition rate was greater than or equal to 80% to 100%); Herbicidal activity (inhibition rate class), Lolium multiflorum (Lolium multiflorum; Dosage 120 g a.i./ha): A (A indicates that the inhibition rate was greater than or equal to 80% to 100%) |
